Measurements: US4857547A, “Novel HMG-CoA reductase inhibitors” (Merck & Co., Inc., priority 1988, dated 1989)

Target: T1, HMG-CoA reductase (Rattus norvegicus, UniProt P51639)
T1 sequence (P51639 1-887): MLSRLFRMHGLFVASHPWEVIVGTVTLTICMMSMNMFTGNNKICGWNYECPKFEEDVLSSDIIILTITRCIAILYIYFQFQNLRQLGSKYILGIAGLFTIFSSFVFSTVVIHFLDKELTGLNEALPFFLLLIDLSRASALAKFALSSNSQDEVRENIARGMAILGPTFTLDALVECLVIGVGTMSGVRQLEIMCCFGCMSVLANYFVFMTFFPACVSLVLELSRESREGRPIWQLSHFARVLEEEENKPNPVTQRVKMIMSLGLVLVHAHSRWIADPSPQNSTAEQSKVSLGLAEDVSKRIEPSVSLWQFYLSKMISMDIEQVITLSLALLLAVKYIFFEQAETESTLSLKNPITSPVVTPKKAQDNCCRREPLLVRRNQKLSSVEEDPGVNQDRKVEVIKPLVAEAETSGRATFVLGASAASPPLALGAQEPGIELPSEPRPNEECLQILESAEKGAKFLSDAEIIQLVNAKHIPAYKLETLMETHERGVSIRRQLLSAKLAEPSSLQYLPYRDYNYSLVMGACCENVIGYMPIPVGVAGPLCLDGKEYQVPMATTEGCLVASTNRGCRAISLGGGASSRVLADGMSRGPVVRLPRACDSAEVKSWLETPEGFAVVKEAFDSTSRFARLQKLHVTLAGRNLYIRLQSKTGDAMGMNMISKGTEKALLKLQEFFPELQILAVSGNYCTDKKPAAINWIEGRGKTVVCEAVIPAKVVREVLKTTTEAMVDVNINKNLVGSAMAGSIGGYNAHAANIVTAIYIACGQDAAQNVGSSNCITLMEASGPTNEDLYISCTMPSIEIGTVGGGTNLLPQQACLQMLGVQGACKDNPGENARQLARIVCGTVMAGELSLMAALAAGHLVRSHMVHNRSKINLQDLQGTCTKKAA
Assay: intrinsic HMG-CoA reductase inhibition, in vitro protocol (J. Med. Chem., 28, p. 347-358 (1985))
Type: biochemical
Conditions: compactin (mevastatin) assigned a value of 100; IC50 of test compound compared with that of mevastatin determined simultaneously
Procedure: The intrinsic HMG-CoA reductase inhibition activity of the claimed compounds is measured in the in vitro protocol published in J. Med. Chem., 28, p. 347-358 (1985).
For estimation of relative inhibitory potencies, compactin (i.e., mevastatin) was assigned a value of 100 and the IC50 value of the test compound was compared with that of mevastatin (compactin) determined simultaneously in the published in vitro protocol.

| SMILES | Relative Potency |
| --- | --- |
| CCC(C)(C)C(=O)O[C@H]1CC(CO)=CC2=CC[C@H](C)[C@H](CC[C@@H]3C[C@@H](O)CC(=O)O3)[C@H]21 [Example 1, 6(R)-[2-[8(S)-(2,2-dimethylbutyryloxy)-2(S)-methyl-6-hydroxymethyl-1,2,3,7,8,8a(R)-hexahydronaphthyl-1(S)]-ethyl]-4(R)-hydroxy-3,4,5,6-tetrahydro-2H-pyran-2-one] | 75 |
| CCC(C)(C)C(=O)O[C@H]1CC(C(=O)O)=CC2=CC[C@H](C)[C@H](CC[C@@H]3C[C@@H](O)CC(=O)O3)[C@H]21 [Example 2, 6(R)-[2-[8(S)-(2,2-dimethylbutyryloxy)-2(S)-methyl-6-carboxy-1,2,3,7,8,8a(R)-hexahydronaphthyl-1(S)]-ethyl]-4(R)-hydroxy-3,4,5,6-tetrahydro-2H-pyran-2-one] | 100 |
| CCC(C)(C)C(=O)O[C@H]1CC(COC(=O)Nc2ccccc2)=CC2=CC[C@H](C)[C@H](CC[C@@H]3C[C@@H](O)CC(=O)O3)[C@H]21 [Example 4, 6(R)-[2-[8(S)-(2,2-dimethylbutyryloxy)-2(S)-methyl-6-phenylaminocarbonyloxymethyl-1,2,3,7,8,8a(R)-hexahydronaphthyl-1(S)]-ethyl]-4(R)-hydroxy-3,4,5,6-tetrahydro-2H-pyran-2-one] | 200 |
